Assay [1] concerns whole blood platelet aggregation. Briefly: Whole blood aggregation, ADP 5 μM. Type of assay: in vivo, Wistar rats. Particulars: oral.
Experimental: Blood is sampled by intracardiac puncture on trisodium citrate solution (3, 8% sodium citrate/blood 1/9 vv) using the 2 syringes technique.
ADP 5 μM in final concentration is used as agonist. Amplitudes are expressed in ohms (Ω) and velocities in ohm/min (Ω/min)
The test system of assay [2] is thrombus formation in mesenteric veinules or arterioles. Description: Laser-induced thrombosis in rat mesenteric circulation. Format: in vivo, Wistar rats. Particulars: oral 60 minutes before laser thrombosis. An excerpt:
Male Wistar rats (200-270 gram) were used for the experiments. […] After the medial laparotomy the intestinal loop was placed on the microscope table. Vascular lesions were produced by Argon laser […] This shot causes a well limited lesion of the vascular endothelium (only few cells are destroyed) exposing the thrombogenetic under-layer of the sub-endothelium. The contact of blood with this surface triggers the adherence of platelets via glycoproteins Ib & IIb IIIa. This adherence of platelets is followed by their activation: they form pseudopods and secrete the content of their granules. As a consequence thrombus formation occurs within few seconds. This platelet rich thrombus rapidly enlarges under influence of blood flow, embolises (i.e. is disrupted and carried by the flow from the thrombogenic area) before a new thrombus being formed again on the injured surface. […] Up to four shots can be fired if no emboli (platelet thrombus) are readily appearing. The number of successive laser beams and emboli formed are then recorded. In the presence of an antithrombotic compound a higher number of laser shots are necessary to induce thrombus formation. Similarly, a smaller number of emboli (platelet thrombi) are formed as compared with controls and the duration of the embolisation is also shorter. […] Similarly, a higher number of emboli (platelet thrombi) are formed as compared with controls and the duration of the embolisation is also longer. Betaine is orally administrated to animals at 50 mg/kg, 60 minutes before laser thrombosis.

The subject of assay [3] is photochemically-induced brain ischemia. Description: Photochemically-induced (rose Bengal) focal cerebral ischemia on rats. Type of assay: in vivo, rat. Particulars: mean. The text has this:
The aim of this study was to evaluate the activity of Betaine on thrombus formation in a rat model of photochemically-induced brain ischemia. The method (11) is based on local free radical release exerted by filtered light acting on rose Bengal previously injected in animals. Free radicals are known to induce endothelial damage, followed by platelet aggregation, thrombus formation and vascular occlusion. Briefly, an optic fiber in close contact shone denuded intact skulls (diameter of the illuminated circle 5.4 mm, luminance at the entrance of optic fiber was 5.6×10^6 Ix). After turning on the lamp, an infusion through the caudal vein of a 5 mg/mL (w/v) solution of rose Bengal in saline was started. Two mL of the solution were administered at a flow rate of 0.1 mL/min. After 20 min, at the end of the infusion, the lamp was turned off. [table] Evan's Blue solution (2% w/v) in saline was intravenously injected (1 mL/rat), 18-20 h after the ischemia induction in order to reveal the BBB breakdown. The rats were sacrificed 20 min after Evan's Blue injections and their brains removed. The infarcted area was visually verified, photographed by digital camera and then weighed.

Setting [4] is: Celebrex 10 mg + saline, individual rats.
The mark [5] stands for this setting: Celebrex 10 mg + saline, mean of 6 rats.
Setting [6] is: ASA 50 mg/kg iv 30 min before ischemia induction, n = 5.
[7] abbreviates: ASA 200 mg/kg iv 30 min before ischemia induction, n = 10.
Where [8] appears, read: NS 398 5 mg + saline, individual rats.
[9] abbreviates: NS 398 5 mg + saline, mean of 6 rats.

Values joined by “and” are separate entries in the source; they are usually repeats but may differ in a detail not shown here. Identical values can stand only once.

Turning to `Cc1ccc(-c2cc(C(F)(F)F)nn2-c2ccc(S(N)(=O)=O)cc2)cc1` [Celebrex ®], in assay [1] (setting [4]), the amplitude was 13 Ω (3×) and 12 Ω and 14 Ω and 21 Ω; the velocity is 8 Ω/min (2×) and 7 Ω/min (2×) and 13 Ω/min and 9 Ω/min. In assay [1] (setting [5]), the amplitude is listed as 14.33 Ω and the velocity is 8.67 Ω/min. In assay [2] (setting [4]), the duration of embolisation is 4 (2×) and 5 (3×) and 9; the emboli was 9 and 8 and 11 (2×) and 17 and 12; the laser beams is 2 (3×) and 1 (3×). In assay [2] (setting [5]), the duration of embolisation amounted to 5.33, the emboli stood at 11.33 and the laser beams is on record as 1.5.

As to `CC(=O)Oc1ccccc1C(=O)O` [ASA, Acetylsalicylic acid, reference compound], the entries for the “Red Ischemic Area, Excluding Blue Evan Penumbra” value in assay [3] (setting [6]) and in assay [3] (setting [7]) were 0.322 cm^2 and 0.29 cm^2, respectively. The “Weight of ischemic area” value in assay [3] (setting [6]) was 35.0 mg; in assay [3] (setting [7]), 40 mg.

Take `CS(=O)(=O)Nc1ccc([N+](=O)[O-])cc1OC1CCCCC1` [NS 398]: in assay [1] (setting [8]), the amplitude is 9 Ω (2×) and 10 Ω and 2 Ω and 12 Ω and 6 Ω; the velocity is 9 Ω/min and 7 Ω/min (4×) and 5 Ω/min. Moreover, in assay [1] (setting [9]), the amplitude is recorded as 8 Ω and the velocity is listed as 7 Ω/min. In assay [2] (setting [8]), the duration of embolisation was 5 (2×) and 4 (2×) and 3 and 2; the emboli is 11 and 9 (2×) and 10 and 7 and 8; the laser beams is 2 (5×) and 1. In assay [2] (setting [9]), the duration of embolisation is on record as 3, the emboli was determined as 9 and the laser beams amounted to 1.83.

Values taken from patent US8318805B2, “Modulation of nitric oxide synthases by betaines” (priority 2004, dated 2012).
